US10711004B2 (Genentech, Inc., priority 2018, dated 2020)
Where two headings read alike, the source gives them in different places.

Target: human TRPA1 channel (Homo sapiens (Human), UniProt O75762)
Experiment: hTRPA1 CHO Ca2+ FLIPR Tetra assay, block of cinnamaldehyde induced calcium influx
Format: cell-based
Details: CHO cells expressing TRPA1, Hill coefficient fixed to 1.5
Summary of the method: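 Calcium-dye-loaded TRPA1-expressing CHO cells in HBSS/20 mM HEPES pH 7.4, 0.02% BSA were preincubated with compound for 10 or 90 min at room temperature. Calcium influx evoked by roughly an EC50 concentration of cinnamaldehyde was then read on FLIPR Tetra; IC50 came from curve fits with a fixed Hill coefficient.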

[1] = read-out: hTRPA1 IC50 (10 min), compounds incubated 10 minutes at room temperature before cinnamaldehyde agonist
[2] = read-out: hTRPA1 IC50 (90 min), compounds incubated 90 minutes at room temperature before cinnamaldehyde agonist

Sequence of human TRPA1 channel (O75762 whole entry): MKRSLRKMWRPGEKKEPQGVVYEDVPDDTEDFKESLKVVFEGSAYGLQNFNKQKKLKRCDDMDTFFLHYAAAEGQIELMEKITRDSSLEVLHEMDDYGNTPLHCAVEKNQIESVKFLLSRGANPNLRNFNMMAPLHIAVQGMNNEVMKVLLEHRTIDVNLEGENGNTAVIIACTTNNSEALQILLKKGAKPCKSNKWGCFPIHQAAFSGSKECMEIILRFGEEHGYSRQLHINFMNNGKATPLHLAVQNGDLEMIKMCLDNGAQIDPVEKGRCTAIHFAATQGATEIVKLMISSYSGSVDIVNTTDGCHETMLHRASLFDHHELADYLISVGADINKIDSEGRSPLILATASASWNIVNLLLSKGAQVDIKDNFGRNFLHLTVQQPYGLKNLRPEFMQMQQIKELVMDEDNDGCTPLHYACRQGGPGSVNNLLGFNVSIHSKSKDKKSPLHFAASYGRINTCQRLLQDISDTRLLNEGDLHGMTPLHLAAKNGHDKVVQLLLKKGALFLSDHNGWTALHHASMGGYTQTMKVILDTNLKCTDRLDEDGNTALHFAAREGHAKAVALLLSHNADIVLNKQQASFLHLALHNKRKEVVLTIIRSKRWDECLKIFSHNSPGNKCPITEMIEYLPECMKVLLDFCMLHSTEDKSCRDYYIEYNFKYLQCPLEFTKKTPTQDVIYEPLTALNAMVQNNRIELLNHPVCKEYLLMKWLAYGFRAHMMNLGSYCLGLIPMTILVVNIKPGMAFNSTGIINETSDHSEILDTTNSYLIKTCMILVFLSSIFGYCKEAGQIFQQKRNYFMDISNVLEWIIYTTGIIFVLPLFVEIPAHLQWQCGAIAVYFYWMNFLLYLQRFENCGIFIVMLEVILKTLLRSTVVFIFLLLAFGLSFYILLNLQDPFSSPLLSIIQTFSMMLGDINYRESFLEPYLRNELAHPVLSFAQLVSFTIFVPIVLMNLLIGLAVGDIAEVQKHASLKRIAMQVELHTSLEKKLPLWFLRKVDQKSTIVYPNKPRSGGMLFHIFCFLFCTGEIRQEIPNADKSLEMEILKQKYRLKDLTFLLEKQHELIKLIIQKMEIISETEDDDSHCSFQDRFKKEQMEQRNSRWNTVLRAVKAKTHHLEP

## COc1ccc(C2=C[C@@H]3[C@H](C2)[C@H]3c2noc(Cn3cnc4ncn(C)c4c3=O)n2)cc1 [Example Compound 118, 1-((3-((1S,5S,6R)-3-(4-methoxyphenyl)bicyclo[3.1.0]hex-2-en-6-yl)-1,2,4-oxadiazol-5-yl)methyl)-7-methyl-1,7-dihydro-6H-purin-6-one]
[1]
  IC50: 0.0418 µM
[2]
  IC50: 0.015 µM

## COc1ccc(C2=C[C@H]3[C@@H](C2)[C@@H]3c2noc(Cn3cnc4ncn(C)c4c3=O)n2)cc1 [Example Compound 119, 1-((3-((1R,5R,6S)-3-(4-methoxyphenyl)bicyclo[3.1.0]hex-2-en-6-yl)-1,2,4-oxadiazol-5-yl)methyl)-7-methyl-1,7-dihydro-6H-purin-6-one]
[1]
  IC50: 0.0266 µM
[2]
  IC50: 0.016 µM

## Cn1cnc2ncn(Cc3nc([C@H]4[C@@H]5CN(c6cc7ccccc7cn6)C[C@@H]54)no3)c(=O)c21 [Example Compound 120, 1-((3-((1R,5S,6r)-3-(isoquinolin-3-yl)-3-azabicyclo[3.1.0]hexan-6-yl)-1,2,4-oxadiazol-5-yl)methyl)-7-methyl-1,7-dihydro-6H-purin-6-one]
[1]
  IC50: 0.0908 µM
[2]
  IC50: 0.081 µM

## O=c1c2c(Cl)ccnc2ncn1Cc1nc([C@H]2C[C@](F)(c3ccc(Cl)cc3)C2)no1 [Example Compound 121, 5-chloro-3-((3-((1s,3s)-3-(4-chlorophenyl)-3-fluorocyclobutyl)-1,2,4-oxadiazol-5-yl)methyl)pyrido[2,3-d]pyrimidin-4(3H)-one]
[1]
  IC50: 0.0131 µM
[2]
  IC50: 0.022 µM

## Cn1cnc2ncn(Cc3nc([C@H]4[C@@H]5C=C(c6ccc(Cl)cn6)C[C@@H]54)no3)c(=O)c21 [Example Compound 122, 1-((3-((1S,5S,6R)-3-(5-chloropyridin-2-yl)bicyclo[3.1.0]hex-2-en-6-yl)-1,2,4-oxadiazol-5-yl)methyl)-7-methyl-1,7-dihydro-6H-purin-6-one]
[1]
  IC50: 0.142 µM
[2]
  IC50: 0.13 µM

## Cn1cnc2ncn(Cc3nc([C@@H]4[C@H]5C=C(c6ccc(Cl)cn6)C[C@H]54)no3)c(=O)c21 [Example Compound 123, 1-((3-((1R,5R,6S)-3-(5-chloropyridin-2-yl)bicyclo[3.1.0]hex-2-en-6-yl)-1,2,4-oxadiazol-5-yl)methyl)-7-methyl-1,7-dihydro-6H-purin-6-one]
[1]
  IC50: 0.296 µM
[2]
  IC50: 0.36 µM

## Cn1cnc2ncn(Cc3nc([C@@H]4[C@H]5C=C(c6ccc(F)cc6)C[C@H]54)no3)c(=O)c21 [Example Compound 124, 1-((3-((1R,5R,6S)-3-(4-fluorophenyl)bicyclo[3.1.0]hex-2-en-6-yl)-1,2,4-oxadiazol-5-yl)methyl)-7-methyl-1,7-dihydro-6H-purin-6-one]
[1]
  IC50: 0.0109 µM
[2]
  IC50: 0.0075 µM

## Cn1cnc2ncn(Cc3nc([C@H]4[C@@H]5C=C(c6ccc(F)cc6)C[C@@H]54)no3)c(=O)c21 [Example Compound 125, 1-((3-((1S,5S,6R)-3-(4-fluorophenyl)bicyclo[3.1.0]hex-2-en-6-yl)-1,2,4-oxadiazol-5-yl)methyl)-7-methyl-1,7-dihydro-6H-purin-6-one]
[1]
  IC50: 0.00748 µM
[2]
  IC50: 0.003 µM

## Cn1cnc2ncn(Cc3nc([C@H]4[C@@H]5C=C(c6ccncc6)C[C@@H]54)no3)c(=O)c21 [Example Compound 126, 7-methyl-1-((3-((1S,5S,6R)-3-(pyridin-4-yl)bicyclo[3.1.0]hex-2-en-6-yl)-1,2,4-oxadiazol-5-yl)methyl)-1,7-dihydro-6H-purin-6-one]
[1]
  IC50: 0.189 µM
[2]
  IC50: 0.096 µM

## Cn1cnc2ncn(Cc3nc([C@@H]4[C@H]5C=C(c6ccncc6)C[C@H]54)no3)c(=O)c21 [Example Compound 127, 7-methyl-1-((3-((1R,5R,6S)-3-(pyridin-4-yl)bicyclo[3.1.0]hex-2-en-6-yl)-1,2,4-oxadiazol-5-yl)methyl)-1,7-dihydro-6H-purin-6-one]
[1]
  IC50: 0.129 µM
[2]
  IC50: 0.085 µM

## Cn1cnc2ncn(Cc3nc([C@@H]4[C@H]5C=C(c6ccccn6)C[C@H]54)no3)c(=O)c21 [Example Compound 128, 7-methyl-1-((3-((1R,5R,6S)-3-(pyridin-2-yl)bicyclo[3.1.0]hex-2-en-6-yl)-1,2,4-oxadiazol-5-yl)methyl)-1,7-dihydro-6H-purin-6-one]
[1]
  IC50: 0.118 µM
[2]
  IC50: 0.078 µM

## Cn1cnc2ncn(Cc3nc([C@H]4[C@@H]5C=C(c6ccccn6)C[C@@H]54)no3)c(=O)c21 [Example Compound 129, 7-methyl-1-((3-((1S,5S,6R)-3-(pyridin-2-yl)bicyclo[3.1.0]hex-2-en-6-yl)-1,2,4-oxadiazol-5-yl)methyl)-1,7-dihydro-6H-purin-6-one]
[1]
  IC50: 0.209 µM
[2]
  IC50: 0.21 µM

## Cn1nnc2ncn(Cc3nc([C@H]4[C@@H]5CN(c6cc(Cl)ccn6)C[C@@H]54)no3)c(=O)c21 [Example Compound 130, 6-((3-((1R,5S,6r)-3-(4-chloropyridin-2-yl)-3-azabicyclo[3.1.0]hexan-6-yl)-1,2,4-oxadiazol-5-yl)methyl)-1-methyl-1,6-dihydro-7H-[1,2,3]triazolo[4,5-d]pyrimidin-7-one]
[1]
  IC50: 0.0745 µM
[2]
  IC50: 0.044 µM

## Cn1cnc2ncn(Cc3nc([C@H]4[C@@H]5CN(c6ccncc6F)C[C@@H]54)no3)c(=O)c21 [Example Compound 131, 1-((3-((1R,5S,6r)-3-(3-fluoropyridin-4-yl)-3-azabicyclo[3.1.0]hexan-6-yl)-1,2,4-oxadiazol-5-yl)methyl)-7-methyl-1,7-dihydro-6H-purin-6-one]
[1]
  IC50: 0.383 µM
[2]
  IC50: 0.11 µM

## Cn1cnc2ncn(Cc3nc([C@H]4[C@@H]5CN(c6ncccc6F)C[C@@H]54)no3)c(=O)c21 [Example Compound 132, 1-((3-((1R,5S,6r)-3-(3-fluoropyridin-2-yl)-3-azabicyclo[3.1.0]hexan-6-yl)-1,2,4-oxadiazol-5-yl)methyl)-7-methyl-1,7-dihydro-6H-purin-6-one]
[1]
  IC50: 0.143 µM
[2]
  IC50: 0.11 µM

## Cn1cnc2ncn(Cc3nc([C@H]4[C@@H]5C=C(c6cccnc6)C[C@@H]54)no3)c(=O)c21 [Example Compound 133, 7-methyl-1-((3-((1S,5S,6R)-3-(pyridin-3-yl)bicyclo[3.1.0]hex-2-en-6-yl)-1,2,4-oxadiazol-5-yl)methyl)-1,7-dihydro-6H-purin-6-one]
[1]
  IC50: 0.179 µM
[2]
  IC50: 0.16 µM

## Cn1cnc2ncn(Cc3nc([C@@H]4[C@H]5C=C(c6cccnc6)C[C@H]54)no3)c(=O)c21 [Example Compound 134, 7-methyl-1-((3-((1R,5R,6S)-3-(pyridin-3-yl)bicyclo[3.1.0]hex-2-en-6-yl)-1,2,4-oxadiazol-5-yl)methyl)-1,7-dihydro-6H-purin-6-one]
[1]
  IC50: 0.348 µM
[2]
  IC50: 0.44 µM

## Cn1cnc2ncn(Cc3nc([C@H]4[C@@H]5C=C(c6ccc7ccncc7c6)C[C@@H]54)no3)c(=O)c21 [Example Compound 135, 1-((3-((1S,5S,6R)-3-(isoquinolin-7-yl)bicyclo[3.1.0]hex-2-en-6-yl)-1,2,4-oxadiazol-5-yl)methyl)-7-methyl-1,7-dihydro-6H-purin-6-one]
[1]
  IC50: 0.0587 µM
[2]
  IC50: 0.048 µM

## Cn1cnc2ncn(Cc3nc([C@@H]4[C@H]5C=C(c6ccc7ccncc7c6)C[C@H]54)no3)c(=O)c21 [Example Compound 136, 1-((3-((1R,5R,6S)-3-(isoquinolin-7-yl)bicyclo[3.1.0]hex-2-en-6-yl)-1,2,4-oxadiazol-5-yl)methyl)-7-methyl-1,7-dihydro-6H-purin-6-one]
[1]
  IC50: 0.0166 µM
[2]
  IC50: 0.0076 µM

## Cn1cnc2ncn(Cc3nc([C@H]4[C@@H]5CN(c6ccc7c(c6)CCCC7)C[C@@H]54)no3)c(=O)c21 [Example Compound 136]
[1]
  IC50: 0.685 µM

## Cc1nn(C)c2ncn(Cc3nc([C@H]4[C@@H]5CN(c6cc(Cl)ccn6)C[C@@H]54)no3)c(=O)c12 [Example Compound 137, 5-((3-((1R,5S,6r)-3-(4-chloropyridin-2-yl)-3-azabicyclo[3.1.0]hexan-6-yl)-1,2,4-oxadiazol-5-yl)methyl)-1,3-dimethyl-1,5-dihydro-4H-pyrazolo[3,4-d]pyrimidin-4-one]
[1]
  IC50: 0.0585 µM
[2]
  IC50: 0.043 µM

## Cc1cnn2ncn(Cc3nc([C@H]4[C@@H]5CN(c6cc(Cl)ccn6)C[C@@H]54)no3)c(=O)c12 [Example Compound 138, 3-((3-((1R,5S,6r)-3-(4-chloropyridin-2-yl)-3-azabicyclo[3.1.0]hexan-6-yl)-1,2,4-oxadiazol-5-yl)methyl)-5-methylpyrazolo[5,1-f][1,2,4]triazin-4(3H)-one]
[1]
  IC50: 0.0151 µM
[2]
  IC50: 0.0055 µM

## Cn1nnc2ncn(Cc3nc([C@H]4[C@@H]5CN(c6cccc(Cl)c6)C[C@@H]54)no3)c(=O)c21 [Example Compound 139, 6-((3-((1R,5S,6r)-3-(3-chlorophenyl)-3-azabicyclo[3.1.0]hexan-6-yl)-1,2,4-oxadiazol-5-yl)methyl)-1-methyl-1,6-dihydro-7H-[1,2,3]triazolo[4,5-d]pyrimidin-7-one]
[1]
  IC50: 0.0106 µM
[2]
  IC50: 0.0036 µM

## Cc1ccc(N2C[C@@H]3[C@H](C2)[C@H]3c2noc(Cn3cnc4ncn(C)c4c3=O)n2)nc1 [Example Compound 140, 7-methyl-1-((3-((1R,5S,6r)-3-(5-methylpyridin-2-yl)-3-azabicyclo[3.1.0]hexan-6-yl)-1,2,4-oxadiazol-5-yl)methyl)-1,7-dihydro-6H-purin-6-one]
[1]
  IC50: 0.222 µM
[2]
  IC50: 0.17 µM

## Cn1cnc2ncn(Cc3nc([C@H]4[C@@H]5C=C(c6ccc(Cl)cc6)C[C@@H]54)no3)c(=O)c21 [Example Compound 141, 1-((3-((1S,5S,6R)-3-(4-chlorophenyl)bicyclo[3.1.0]hex-2-en-6-yl)-1,2,4-oxadiazol-5-yl)methyl)-7-methyl-1,7-dihydro-6H-purin-6-one]
[1]
  IC50: 0.00978 µM
[2]
  IC50: 0.0051 µM
